Assay results reported in patent publication US6245917A, “Crystalline sodium phenytoin monohydrate” (Warner-Lambert Company, priority 1999, dated 2001).

What was measured:
[1] = DSC and TGA thermal analyses; type: physicochemical; settings: TGA, transitions at 364° C. and 409° C.
Protocol: Differential scanning calorimetry (DSC) experiments were performed on a Dupont DSC 2000 and thermogravimetric analyses (TGA) were performed on a Dupont TGA 2000. Nitrogen was used as the purge gas and heating rates were 10° C./minute. Standards were run prior to sample analyses; Sn for DSC and calcium oxalate for TGA.
Both SPM and SPA were analyzed by x-ray powder diffraction (XRPD), infrared (IR) spectroscopy, solid-state nuclear magnetic resonance (SSNMR) spectroscopy, differential scanning calorimetry (DSC) and thermogravimetric analysis (TGA). The XRPD patterns of SPM and SPA are quite different and distinguishable. While the IR and SSNMR spectra of SPM and SPA are different, the differences are subtle. SPM and SPA behave quite differently on both DSC and TGA thermal analyses. SPA undergoes endothermic transitions at 364° C. and 409° C. that are accompanied by a weight loss of 72%.

[2] = Repeated water uptake study with solvent-free SPM (dichloromethane preparation); type: physicochemical
From the text: Study of weight change under controlled humidity conditions, samples were placed in open vials, which were placed in closed controlled-humidity jars. Relative humidities were controlled using saturated aqueous salt solutions: 58% RH, NaBr; 75% RH, (NH4)2 SO4; 76%, sodium acetate; 84% RH, KBr.
A possible cause of the observed weight loss is that some reaction solvent (toluene in this case) from the preparation of SPM remained on the solid and evaporated in the humidity jars. To test this theory, it was decided to prepare SPM, show it to be solvent-free, and repeat the water uptake studies. Dichloromethane was chosen as the organic solvent for the preparation rather than toluene because its lower boiling point should allow it to be removed from the solid more easily and completely. SPM was made by stirring a slurry of SPA and one equivalent of water in dichloromethane for 2 days, then isolation by filtration and air-drying of the solid SPM.
The remainder of the SPM sample was allowed to dry in an open jar under ambient conditions for about 1 week. It was then characterized by XRPD elemental analysis, and Karl Fischer (KF) analysis. The sample appears to be pure SPM containing very little, if any, residual solvent.
Both SPM and SPA increased in weight about 20% when equilibrium was reached (constant weight) at each humidity utilized. The samples were analyzed by XRPD after completion of the water uptake experiments. […] The nature of this form has not been determined.

**Q.** For `O=C1NC(=O)C(c2ccccc2)(c2ccccc2)N1` [SPA, sodium phenytoin anhydrate, reference compound], which “weight loss accompanying the endothermic transitions” value [1] is on record?
**A.** 72%

**Q.** And the “Percent change based on average of final two weights” value (“Percent change based on average” below) ([2]; 58% RH)?
**A.** +19%

**Q.** And the sample weight ([2]; 58% RH, day 0 (starting weight))?
**A.** 1.5087 g

**Q.** And the “change in starting weight” value ([2]; 58% RH, day 1)?
**A.** +0.0263 g

**Q.** What about the sample weight ([2]; 58% RH, day 1) of the same molecule?
**A.** 1.5350 g

**Q.** What about the “change in starting weight” value ([2]; 58% RH, day 2) of the same molecule?
**A.** +0.0510 g

**Q.** What about the sample weight ([2]; 58% RH, day 2) of the same molecule?
**A.** 1.5597 g

**Q.** What about the “change in starting weight” value ([2]; 58% RH, day 3) of the same molecule?
**A.** +0.0793 g

**Q.** What about the sample weight ([2]; 58% RH, day 3) of the same molecule?
**A.** 1.5880 g

**Q.** What about the “change in starting weight” value ([2]; 58% RH, day 4) of the same molecule?
**A.** +0.1011 g

**Q.** What about the sample weight ([2]; 58% RH, day 4) of the same molecule?
**A.** 1.6098 g

**Q.** What about the “change in starting weight” value ([2]; 58% RH, day 5) of the same molecule?
**A.** +0.1111 g

**Q.** What about the sample weight ([2]; 58% RH, day 5) of the same molecule?
**A.** 1.6198 g

**Q.** What about the “change in starting weight” value ([2]; 58% RH, day 6) of the same molecule?
**A.** +0.1208 g

**Q.** What about the sample weight ([2]; 58% RH, day 6) of the same molecule?
**A.** 1.6295 g

**Q.** What about the “change in starting weight” value ([2]; 58% RH, day 7) of the same molecule?
**A.** +0.1333 g

**Q.** And the sample weight ([2]; 58% RH, day 7)?
**A.** 1.6420 g

**Q.** What about the “change in starting weight” value ([2]; 58% RH, day 8) of the same molecule?
**A.** 0.1487 g

**Q.** What about the “change in starting weight” value ([2]; 58% RH, day 10) of the same molecule?
**A.** +0.1797 g

**Q.** And the “change in starting weight” value ([2]; 58% RH, day 12)?
**A.** +0.2166 g

**Q.** And the sample weight ([2]; 58% RH, day 12)?
**A.** 1.7253 g

**Q.** What about the “change in starting weight” value ([2]; 58% RH, day 13) of the same molecule?
**A.** +0.2250 g

**Q.** And the sample weight ([2]; 58% RH, day 13)?
**A.** 1.7337 g

**Q.** And the “change in starting weight” value ([2]; 58% RH, day 14)?
**A.** +0.2338 g

**Q.** And the sample weight ([2]; 58% RH, day 14)?
**A.** 1.7425 g

**Q.** What about the “change in starting weight” value ([2]; 58% RH, day 15) of the same molecule?
**A.** +0.2445 g

**Q.** And the sample weight ([2]; 58% RH, day 15)?
**A.** 1.7532 g

**Q.** And the “change in starting weight” value ([2]; 58% RH, day 16)?
**A.** +0.2531 g

**Q.** And the sample weight ([2]; 58% RH, day 16)?
**A.** 1.7618 g

**Q.** What about the “change in starting weight” value ([2]; 58% RH, day 17) of the same molecule?
**A.** +0.2593 g

**Q.** What about the sample weight ([2]; 58% RH, day 17) of the same molecule?
**A.** 1.7680 g

**Q.** And the “change in starting weight” value ([2]; 58% RH, day 21)?
**A.** +0.2773 g

**Q.** And the sample weight ([2]; 58% RH, day 21)?
**A.** 1.7860 g

**Q.** What about the “change in starting weight” value ([2]; 58% RH, day 23) of the same molecule?
**A.** +0.2818 g

**Q.** What about the sample weight ([2]; 58% RH, day 23) of the same molecule?
**A.** 1.7905 g

**Q.** What about the “change in starting weight” value ([2]; 58% RH, day 26) of the same molecule?
**A.** +0.2818 g

**Q.** What about the “Percent change based on average” value ([2]; 75% RH) of the same molecule?
**A.** +21%

**Q.** What about the sample weight ([2]; 75% RH, day 0 (starting weight)) of the same molecule?
**A.** 1.5037 g

**Q.** And the “change in starting weight” value ([2]; 75% RH, day 1)?
**A.** +0.0581 g

**Q.** What about the sample weight ([2]; 75% RH, day 1) of the same molecule?
**A.** 1.5618 g

**Q.** And the “change in starting weight” value ([2]; 75% RH, day 2)?
**A.** +0.1166 g

**Q.** What about the sample weight ([2]; 75% RH, day 2) of the same molecule?
**A.** 1.6203 g

**Q.** What about the “change in starting weight” value ([2]; 75% RH, day 3) of the same molecule?
**A.** +0.1625 g

**Q.** And the sample weight ([2]; 75% RH, day 3)?
**A.** 1.6662 g

**Q.** What about the “change in starting weight” value ([2]; 75% RH, day 4) of the same molecule?
**A.** +0.2103 g

**Q.** And the sample weight ([2]; 75% RH, day 4)?
**A.** 1.7140 g

**Q.** And the “change in starting weight” value ([2]; 75% RH, day 5)?
**A.** +0.2501 g

**Q.** And the sample weight ([2]; 75% RH, day 5)?
**A.** 1.7538 g

**Q.** What about the “change in starting weight” value ([2]; 75% RH, day 6) of the same molecule?
**A.** +0.2825 g

**Q.** What about the sample weight ([2]; 75% RH, day 6) of the same molecule?
**A.** 1.7862 g

**Q.** And the “change in starting weight” value ([2]; 75% RH, day 7)?
**A.** +0.3054 g

**Q.** And the sample weight ([2]; 75% RH, day 7)?
**A.** 1.8091 g

**Q.** And the “change in starting weight” value ([2]; 75% RH, day 8)?
**A.** +0.3152 g

**Q.** What about the “change in starting weight” value ([2]; 75% RH, day 10) of the same molecule?
**A.** +0.3165 g

**Q.** What about the “change in starting weight” value ([2]; 75% RH, day 12) of the same molecule?
**A.** +0.3197 g

**Q.** What about the sample weight ([2]; 75% RH, day 12) of the same molecule?
**A.** 1.8234 g

**Q.** And the “change in starting weight” value ([2]; 75% RH, day 13)?
**A.** +0.3171 g

**Q.** And the sample weight ([2]; 75% RH, day 13)?
**A.** 1.8208 g

**Q.** What about the “change in starting weight” value ([2]; 75% RH, day 14) of the same molecule?
**A.** +0.3152 g

**Q.** What about the sample weight ([2]; 75% RH, day 14) of the same molecule?
**A.** 1.8189 g

**Q.** And the “change in starting weight” value ([2]; 75% RH, day 15)?
**A.** +0.3146 g

**Q.** What about the sample weight ([2]; 75% RH, day 15) of the same molecule?
**A.** 1.8183 g

**Q.** What about the “change in starting weight” value ([2]; 75% RH, day 16) of the same molecule?
**A.** +0.3139 g

**Q.** And the sample weight ([2]; 75% RH, day 16)?
**A.** 1.8176 g

**Q.** And the “change in starting weight” value ([2]; 75% RH, day 17)?
**A.** +0.3117 g

**Q.** And the sample weight ([2]; 75% RH, day 17)?
**A.** 1.8154 g

**Q.** What about the “Percent change based on average” value ([2]; 84% RH) of the same molecule?
**A.** +22%

**Q.** What about the sample weight ([2]; 84% RH, day 0 (starting weight)) of the same molecule?
**A.** 1.5023 g

**Q.** What about the “change in starting weight” value ([2]; 84% RH, day 1) of the same molecule?
**A.** +0.0712 g

**Q.** And the sample weight ([2]; 84% RH, day 1)?
**A.** 1.5735 g

**Q.** What about the “change in starting weight” value ([2]; 84% RH, day 2) of the same molecule?
**A.** +0.1330 g

**Q.** What about the sample weight ([2]; 84% RH, day 2) of the same molecule?
**A.** 1.6353 g

**Q.** What about the “change in starting weight” value ([2]; 84% RH, day 3) of the same molecule?
**A.** +0.1952 g

**Q.** And the sample weight ([2]; 84% RH, day 3)?
**A.** 1.6975 g

**Q.** What about the “change in starting weight” value ([2]; 84% RH, day 4) of the same molecule?
**A.** +0.2498 g

**Q.** And the sample weight ([2]; 84% RH, day 4)?
**A.** 1.7521 g

**Q.** And the “change in starting weight” value ([2]; 84% RH, day 5)?
**A.** +0.2949 g

**Q.** And the sample weight ([2]; 84% RH, day 5)?
**A.** 1.7972 g

**Q.** What about the “change in starting weight” value ([2]; 84% RH, day 6) of the same molecule?
**A.** +0.3169 g

**Q.** And the sample weight ([2]; 84% RH, day 6)?
**A.** 1.8192 g

**Q.** What about the “change in starting weight” value ([2]; 84% RH, day 7) of the same molecule?
**A.** +0.3275 g

**Q.** And the sample weight ([2]; 84% RH, day 7)?
**A.** 1.8298 g

**Q.** And the “change in starting weight” value ([2]; 84% RH, day 8)?
**A.** +0.3301 g

**Q.** What about the “change in starting weight” value ([2]; 84% RH, day 12) of the same molecule?
**A.** +0.3322 g

**Q.** What about the sample weight ([2]; 84% RH, day 12) of the same molecule?
**A.** 1.8345 g

**Q.** And the “change in starting weight” value ([2]; 84% RH, day 13)?
**A.** +0.3288 g

**Q.** And the sample weight ([2]; 84% RH, day 13)?
**A.** 1.8311 g

**Q.** What about the “change in starting weight” value ([2]; 84% RH, day 14) of the same molecule?
**A.** +0.3260 g

**Q.** And the sample weight ([2]; 84% RH, day 14)?
**A.** 1.8283 g

**Q.** And the “change in starting weight” value ([2]; 84% RH, day 15)?
**A.** +0.3255 g

**Q.** What about the sample weight ([2]; 84% RH, day 15) of the same molecule?
**A.** 1.8278 g

**Q.** What about the “change in starting weight” value ([2]; 84% RH, day 16) of the same molecule?
**A.** +0.3249 g

**Q.** And the sample weight ([2]; 84% RH, day 16)?
**A.** 1.8272 g

**Q.** What about the “change in starting weight” value ([2]; 84% RH, day 17) of the same molecule?
**A.** +0.3225 g

**Q.** And the sample weight ([2]; 84% RH, day 17)?
**A.** 1.8248 g
